From patent US8802597B2, “Herbicidal pyrimidines” (E I du Pont de Nemours and Company, priority 2003, dated 2014)
Where two headings read alike, the source gives them in different places.

Columns and labels:
Type in all cases: in vivo
[1] = tested on: Surinam grass (Brachiaria decumbens); assay: Test B pre/postemergence; details: for pest or weed control at 62 g/ha: Urochloa decumbens, 62 g ai/ha
Procedure, shortened: (§1)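 Pre: compound (non-phytotoxic solvent + surfactant) applied to freshly planted seeds. Post: same formulation sprayed on 2–18 cm plants, 1- to 4-leaf. Readout: visual control rating 0–100 vs controls, 13–15 d, greenhouse.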

[2] = tested on: barnyardgrass (Echinochloa crus-galli); assay: Test B pre/postemergence; details: scale 0 to 100 (0 no effect, 100 complete control); for pest or weed control at 62 g/ha: Echinochloa crus-galli, 62 g ai/ha
Procedure, shortened: as §1

[3] = tested on: cocklebur (Xanthium strumarium); assay: Test B pre/postemergence; details: for pest or weed control at 62 g/ha: Xanthium strumarium, 62 g ai/ha
Procedure, shortened: as §1

corn (Zea mays) = assay: Test B pre/postemergence
Procedure, shortened: as §1

[4] = tested on: crabgrass (Digitaria sanguinalis); assay: Test B pre/postemergence; details: for pest or weed control at 62 g/ha: Digitaria sanguinalis, 62 g ai/ha
Procedure, shortened: as §1

[5] = tested on: giant foxtail (Setaria faberii); assay: Test B pre/postemergence; details: for pest or weed control at 62 g/ha: Setaria faberi, 62 g ai/ha
Procedure, shortened: as §1

[6] = tested on: lambsquarters (Chenopodium album); assay: Test B pre/postemergence; details: for pest or weed control at 62 g/ha: Chenopodium album, 62 g ai/ha
Procedure, shortened: as §1

[7] = tested on: morningglory (Ipomoea coccinea); assay: Test B pre/postemergence; details: for pest or weed control at 62 g/ha: Ipomoea, 62 g ai/ha
Procedure, shortened: as §1

[8] = tested on: pigweed (Amaranthus retroflexus); assay: Test B pre/postemergence; details: for pest or weed control at 62 g/ha: Amaranthus retroflexus, 62 g ai/ha
Procedure, shortened: as §1

[9] = tested on: velvetleaf (Abutilon theophrasti); assay: Test B pre/postemergence; details: for pest or weed control at 62 g/ha: Abutilon theophrasti, 62 g ai/ha
Procedure, shortened: as §1

[10] = tested on: wheat (Triticum aestivum); assay: Test B pre/postemergence; details: scale 0 to 100 (0 no effect, 100 complete control); for plant injury at 62 g/ha: Triticum aestivum, 62 g ai/ha
Procedure, shortened: as §1

[11] = tested on: blackgrass (Alopecurus myosuroides); assay: Test B postemergence; details: scale 0 to 100 (0 no effect, 100 complete control)
Procedure, shortened: as §1

wild oat (Avena fatua) = assay: Test B postemergence; details: scale 0 to 100 (0 no effect, 100 complete control)
Procedure, shortened: as §1

[12] = tested on: barnyardgrass (Echinochloa crus-galli); assay: Test B flooded paddy test; details: Echinochloa crus-galli, Flood, scale 0 to 100, read-out: Plant response rating, Barnyardgrass
Procedure, shortened: (§2)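 Rice, umbrella sedge, duck salad and barnyardgrass grown to 2-leaf stage under flooded paddy conditions and treated with formulated test chemicals. Kept in greenhouse 13–15 days, then visually rated against untreated controls on a 0–100 scale (0 no effect, 100 complete control).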

[13] = tested on: duck salad (Heteranthera limosa); assay: Test B flooded paddy test; details: Heteranthera limosa, Flood, scale 0 to 100, read-out: Plant response rating, Ducksalad
Procedure, shortened: as §2

rice (Oryza sativa) = assay: Test B flooded paddy test; details: Oryza sativa, Flood, scale 0 to 100, read-out: Plant response rating, Rice
Procedure, shortened: as §2

[14] = tested on: umbrella sedge (Cyperus difformis); assay: Test B flooded paddy test; details: Cyperus difformis, Flood, scale 0 to 100, read-out: Plant response rating, Sedge, Umbrella
Procedure, shortened: as §2

[15] = Postemergence, 125 g ai/ha, scale 0 to 100 (0 no effect, 100 complete control)
[16] = Preemergence, 125 g ai/ha, scale 0 to 100 (0 no effect, 100 complete control)

Nc1nc(C2CC2)nc(C(=O)[O-])c1Br.[Na+] [Compound 113, 6-amino-5-bromo-2-cyclopropyl-4-pyrimidinecarboxylic acid monosodium salt]
Surinam Grass plant response rating [1, 15]: 80
Plant response rating, Surinam Grass [1, 16]: 60
pest or weed control at 62 g/ha ([1]; post-emergence, Postemergence, scale 0 to 100 (0 no effect, 100 complete control), read-out: Surinam Grass plant response rating): 30%
pest or weed control at 62 g/ha ([1]; pre-emergence, Preemergence, scale 0 to 100, 0 no effect, 100 complete control, read-out: Plant response rating, Surinam Grass): 20%
pest or weed control at 62 g/ha ([2]; post-emergence, Postemergence, read-out: Barnyardgrass plant response rating): 50%
pest or weed control at 62 g/ha ([2]; pre-emergence, Preemergence, read-out: Plant response rating, Barnyardgrass): 0%
Barnyardgrass plant response rating ([2]; Postemergence, 125 g ai/ha): 80
Plant response rating, Barnyardgrass ([2]; Preemergence, 125 g ai/ha): 20
Cocklebur plant response rating [3, 15]: 90
Plant response rating, Cocklebur [3, 16]: 80
pest or weed control at 62 g/ha ([3]; post-emergence, Postemergence, scale 0 to 100 (0 no effect, 100 complete control), read-out: Cocklebur plant response rating): 90%
pest or weed control at 62 g/ha ([3]; pre-emergence, Preemergence, scale 0 to 100, 0 no effect, 100 complete control, read-out: Plant response rating, Cocklebur): 70%
Corn plant response rating (corn (Zea mays); [15]): 40
Plant response rating, Corn (corn (Zea mays); [16]): 20
plant injury at 62 g/ha (corn (Zea mays); Zea mays, post-emergence, Postemergence, 62 g ai/ha, scale 0 to 100 (0 no effect, 100 complete control), read-out: Corn plant response rating): 10%
Corn plant response rating (crop injury, 0 = no effect, 100 = complete kill) at 62 g/ha (corn (Zea mays); Zea mays, pre-emergence, Preemergence, 62 g ai/ha, scale 0 to 100, 0 no effect, 100 complete control): 0%
pest or weed control at 62 g/ha ([4]; post-emergence, Postemergence, scale 0 to 100 (0 no effect, 100 complete control), read-out: Crabgrass plant response rating): 20%
pest or weed control at 62 g/ha ([4]; pre-emergence, Preemergence, scale 0 to 100, 0 no effect, 100 complete control, read-out: Plant response rating, Crabgrass): 40%
Crabgrass plant response rating [4, 15]: 40
Plant response rating, Crabgrass [4, 16]: 70
Foxtail, Giant plant response rating [5, 15]: 50
Plant response rating, Foxtail, Giant [5, 16]: 10
pest or weed control at 62 g/ha ([5]; post-emergence, Postemergence, scale 0 to 100 (0 no effect, 100 complete control), read-out: Foxtail, Giant plant response rating): 20%
pest or weed control at 62 g/ha ([5]; pre-emergence, Preemergence, scale 0 to 100, 0 no effect, 100 complete control, read-out: Plant response rating, Foxtail, Giant): 0%
pest or weed control at 62 g/ha ([6]; post-emergence, Postemergence, scale 0 to 100 (0 no effect, 100 complete control), read-out: Lambsquarters plant response rating): 80%
pest or weed control at 62 g/ha ([6]; pre-emergence, Preemergence, scale 0 to 100, 0 no effect, 100 complete control, read-out: Plant response rating, Lambsquarters): 70%
Lambsquarters plant response rating [6, 15]: 90
Plant response rating, Lambsquarters [6, 16]: 80
pest or weed control at 62 g/ha ([7]; post-emergence, Postemergence, scale 0 to 100 (0 no effect, 100 complete control), read-out: Morningglory plant response rating): 90%
pest or weed control at 62 g/ha ([7]; pre-emergence, Preemergence, scale 0 to 100, 0 no effect, 100 complete control, read-out: Plant response rating, Morningglory): 50%
Morningglory plant response rating [7, 15]: 90
Plant response rating, Morningglory [7, 16]: 60
pest or weed control at 62 g/ha ([8]; post-emergence, Postemergence, scale 0 to 100 (0 no effect, 100 complete control), read-out: Pigweed plant response rating): 70%
pest or weed control at 62 g/ha ([8]; pre-emergence, Preemergence, scale 0 to 100, 0 no effect, 100 complete control, read-out: Plant response rating, Pigweed): 70%
Pigweed plant response rating [8, 15]: 90
Plant response rating, Pigweed [8, 16]: 90
pest or weed control at 62 g/ha ([9]; post-emergence, Postemergence, scale 0 to 100 (0 no effect, 100 complete control), read-out: Velvetleaf plant response rating): 60%
pest or weed control at 62 g/ha ([9]; pre-emergence, Preemergence, scale 0 to 100, 0 no effect, 100 complete control, read-out: Plant response rating, Velvetleaf): 80%
Velvetleaf plant response rating [9, 15]: 80
Plant response rating, Velvetleaf [9, 16]: 90
Wheat plant response rating ([10]; Postemergence, 125 g ai/ha): 50
Plant response rating, Wheat ([10]; Preemergence, 125 g ai/ha): 60
plant injury at 62 g/ha ([10]; post-emergence, Postemergence, read-out: Wheat plant response rating): 30%
plant injury at 62 g/ha ([10]; pre-emergence, Preemergence, read-out: Plant response rating, Wheat): 10%
Blackgrass plant response rating ([11]; 125 g ai/ha): 40
pest or weed control at 62 g/ha ([11]; Alopecurus myosuroides, post-emergence, 62 g ai/ha, read-out: Blackgrass plant response rating): 30%
Oat, Wild plant response rating (wild oat (Avena fatua); 125 g ai/ha): 50
pest or weed control at 62 g/ha (wild oat (Avena fatua); Avena fatua, post-emergence, 62 g ai/ha, read-out: Oat, Wild plant response rating): 40%
pest or weed control at 125 g/ha ([12]; 125 g ai/ha): 0%
pest or weed control at 500 g/ha ([12]; 500 g ai/ha): 0%
pest or weed control at 125 g/ha ([13]; 125 g ai/ha): 0%
pest or weed control at 500 g/ha ([13]; 500 g ai/ha): 0%
plant injury at 125 g/ha (rice (Oryza sativa); 125 g ai/ha): 0%
plant injury at 500 g/ha (rice (Oryza sativa); 500 g ai/ha): 0%
pest or weed control at 125 g/ha ([14]; 125 g ai/ha): 0%
pest or weed control at 500 g/ha ([14]; 500 g ai/ha): 0%
